The supplement of paper PMC11208160

Test: recombinant UMI read abundance after kanamycin selection (control-corrected) (log10(CPM+1)); higher = more efficient recombination; extreme values may be limits of the assay; sequences stand for … in AGTGCAGAGAAAATCGGCCAGTTTTCTCTGCCTGCAGTCCGCATGCCGTGGGACCCCTTGGGTTCTAACCTGTTGCCTAGATTTATGCAGCGGACTGCCTTTCTCCCAAAGTGATAAACCGG…AGGTTGGTTTCACT; site = the 11-nt donor
How it was run: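 Values are reported as log10(CPM+1), obtained by converting sequencing counts to CPM, averaging replicates and scaling by control-derived factors. The counts came from recombinant UMIs amplified by PCR across the donor–target junction. These UMIs came from a pooled Escherichia coli screen of donor and donor-binding-loop pairs for the IS621 bridge recombinase, plated with IPTG (0.07 mM) plus kanamycin or left unselected, in two replicates each.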
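Also: IS621 bridge recombinase in Escherichia coli cells against a fixed T5 target plasmid.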

Sequence	recombinant UMI read abundance (log10)
GCGATCCCATGGACCGGTTTTCCCGGTAATCCGTATTTGCG (site GCGATCCCTCG)	1.71
GCGCCCTCATGGACCGGTTTTCCCGGTAATCCGTATTTGGC (site TGAAGTCCTCT)	0.0178
GCGCCGACATGGACCGGTTTTCCCGGTAATCCGTATTTGAC (site GCGCCGACTGT)	2.07
GCGCGAACATGGACCGGTTTTCCCGGTAATCCGTATTTGAC (site GCGCGAACTGT)	1.77
GCGCGCGCATGGACCGGTTTTCCCGGTAATCCGTATTTGGA (site GCGCGCGCTTC)	0.527
GCGCGGGCATGGACCGGTTTTCCCGGTAATCCGTATTTGGC (site GCGCGGGCTGC)	2.54
GCGCTAACATGGACCGGTTTTCCCGGTAATCCGTATTTGAC (site GCGCTAACTGT)	2.61
GCGCTAGCATGGACCGGTTTTCCCGGTAATCCGTATTTGCA (site GCGCTAGCTTG)	2.2
GCGCTGGCATGGACCGGTTTTCCCGGTAATCCGTATTTGCG (site GCGCTGGCTCG)	0.891
GCGGAATCATGGACCGGTTTTCCCGGTAATCCGTATTTGTT (site GCGGAATCTAA)	2.76
GCGGAGCCATGGACCGGTTTTCCCGGTAATCCGTATTTGGG (site GCGAAGCCTCC)	0.0138
GCGGAGCCATGGACCGGTTTTCCCGGTAATCCGTATTTGGG (site GCGCAGCCTCC)	0
GCGGAGCCATGGACCGGTTTTCCCGGTAATCCGTATTTGGG (site GCGGAGCCTCC)	0.0323
GCGGAGCCATGGACCGGTTTTCCCGGTAATCCGTATTTGGG (site GCGTAGCCTCC)	0.0221
GCGGAGGCATGGACCGGTTTTCCCGGTAATCCGTATTTGAG (site GCGGAGGCTCT)	1.89
GCGGCCCCATGGACCGGTTTTCCCGGTAATCCGTATTTGAT (site GCGGCCCCTAT)	0.00951
GCGGCGACATGGACCGGTTTTCCCGGTAATCCGTATTTGGC (site GCGGCGACTGC)	1.99
GCGGGTGCATGGACCGGTTTTCCCGGTAATCCGTATTTGTA (site GCGGGTGCTTA)	2.6
GCGTAATCATGGACCGGTTTTCCCGGTAATCCGTATTTGCC (site GCGTAATCTGG)	2.11
GCGTACGCATGGACCGGTTTTCCCGGTAATCCGTATTTGTT (site GCGTACGCTAA)	1.84
GCGTAGCCATGGACCGGTTTTCCCGGTAATCCGTATTTGGG (site GCGAAGCCTCC)	0.00823
GCGTAGCCATGGACCGGTTTTCCCGGTAATCCGTATTTGGG (site GCGCAGCCTCC)	0.00818
GCGTAGCCATGGACCGGTTTTCCCGGTAATCCGTATTTGGG (site GCGGAGCCTCC)	0.0167
GCGTAGCCATGGACCGGTTTTCCCGGTAATCCGTATTTGGG (site GCGTAGCCTCC)	0.0103
GCGTCACCATGGACCGGTTTTCCCGGTAATCCGTATTTGTT (site GCGTCACCTAA)	0.0187

Sequence	recombinant UMI read abundance (log10)
GCGTTTACATGGACCGGTTTTCCCGGTAATCCGTATTTGCT (site ACGTTTACTAG)	1.3
GCGTTTACATGGACCGGTTTTCCCGGTAATCCGTATTTGCT (site CCGTTTACTAG)	0
GCGTTTACATGGACCGGTTTTCCCGGTAATCCGTATTTGCT (site GCGTTTACTAG)	1.6
GCGTTTACATGGACCGGTTTTCCCGGTAATCCGTATTTGCT (site TCGTTTACTAG)	0.474
GCTAAAACATGGACCGGTTTTCCCGGTAATCCGTATTTGCT (site GCAAAAACTAG)	0
GCTAAAACATGGACCGGTTTTCCCGGTAATCCGTATTTGCT (site GCCAAAACTAG)	0
GCTAAAACATGGACCGGTTTTCCCGGTAATCCGTATTTGCT (site GCGAAAACTAG)	1.28
GCTAAAACATGGACCGGTTTTCCCGGTAATCCGTATTTGCT (site GCTAAAACTAG)	1.01
GCTAACTCATGGACCGGTTTTCCCGGTAATCCGTATTTGGG (site GCTAACTCTCC)	0.0314
GCTAAGCCATGGACCGGTTTTCCCGGTAATCCGTATTTGGG (site GCAAAGCCTCC)	0.00437
GCTAAGCCATGGACCGGTTTTCCCGGTAATCCGTATTTGGG (site GCCAAGCCTCC)	0.0229
GCTAAGCCATGGACCGGTTTTCCCGGTAATCCGTATTTGGG (site GCGAAGCCTCC)	0.00564
GCTAAGCCATGGACCGGTTTTCCCGGTAATCCGTATTTGGG (site GCTAAGCCTCC)	0.0172
GCTAAGTCATGGACCGGTTTTCCCGGTAATCCGTATTTGTG (site GCTAAGTCTCA)	2.06
GCTACAGCATGGACCGGTTTTCCCGGTAATCCGTATTTGCC (site GCTACAGCTGG)	1.42
GCTACAGCATGGACCGGTTTTCCCGGTAATCCGTATTTGCC (site GCTACCGCTGG)	0
GCTACAGCATGGACCGGTTTTCCCGGTAATCCGTATTTGCC (site GCTACGGCTGG)	0.477
GCTACAGCATGGACCGGTTTTCCCGGTAATCCGTATTTGCC (site GCTACTGCTGG)	0
GCTACCCCATGGACCGGTTTTCCCGGTAATCCGTATTTGGA (site GCTACCCCTTC)	0.0342
GCTACCGCATGGACCGGTTTTCCCGGTAATCCGTATTTGCC (site GCTACAGCTGG)	0
GCTACCGCATGGACCGGTTTTCCCGGTAATCCGTATTTGCC (site GCTACCGCTGG)	1.61
GCTACCGCATGGACCGGTTTTCCCGGTAATCCGTATTTGCC (site GCTACGGCTGG)	0
GCTACCGCATGGACCGGTTTTCCCGGTAATCCGTATTTGCC (site GCTACTGCTGG)	0
GCTACGTCATGGACCGGTTTTCCCGGTAATCCGTATTTGTT (site GATACGTCTAA)	0.00849
GCTACGTCATGGACCGGTTTTCCCGGTAATCCGTATTTGTT (site GCTACGTCTAA)	0.808

Sequence	recombinant UMI read abundance (log10)
GCTACGTCATGGACCGGTTTTCCCGGTAATCCGTATTTGTT (site GGTACGTCTAA)	0.0111
GCTACGTCATGGACCGGTTTTCCCGGTAATCCGTATTTGTT (site GTTACGTCTAA)	0.0153
GCTACTGCATGGACCGGTTTTCCCGGTAATCCGTATTTGCT (site GCTACTGCTAG)	1.64
GCTACTGCATGGACCGGTTTTCCCGGTAATCCGTATTTGCT (site GCTACTGCTCG)	0.00284
GCTACTGCATGGACCGGTTTTCCCGGTAATCCGTATTTGCT (site GCTACTGCTGG)	0
GCTACTGCATGGACCGGTTTTCCCGGTAATCCGTATTTGCT (site GCTACTGCTTG)	0
GCTAGTGCATGGACCGGTTTTCCCGGTAATCCGTATTTGGT (site ACTAGTGCTAC)	1.31
GCTAGTGCATGGACCGGTTTTCCCGGTAATCCGTATTTGGT (site CCTAGTGCTAC)	1.65
GCTAGTGCATGGACCGGTTTTCCCGGTAATCCGTATTTGGT (site GCTAGTGCTAC)	1.73
GCTAGTGCATGGACCGGTTTTCCCGGTAATCCGTATTTGGT (site TCTAGTGCTAC)	0.581
GCTATGGCATGGACCGGTTTTCCCGGTAATCCGTATTTGAA (site GCTATGGCTTT)	1.55
GCTCCAACATGGACCGGTTTTCCCGGTAATCCGTATTTGAA (site GCTCCAACTTT)	0.939
GCTCCAACATGGACCGGTTTTCCCGGTAATCCGTATTTGTA (site GATCCAACTTA)	0.0429
GCTCCAACATGGACCGGTTTTCCCGGTAATCCGTATTTGTA (site GCTCCAACTTA)	0.877
GCTCCAACATGGACCGGTTTTCCCGGTAATCCGTATTTGTA (site GGTCCAACTTA)	0.0155
GCTCCAACATGGACCGGTTTTCCCGGTAATCCGTATTTGTA (site GTTCCAACTTA)	0.481
GCTCCGACATGGACCGGTTTTCCCGGTAATCCGTATTTGGA (site GCTCCGACTTC)	0.0323
GCTCGATCATGGACCGGTTTTCCCGGTAATCCGTATTTGGA (site GCTCGATCTTC)	1.99
GCTCGTCCATGGACCGGTTTTCCCGGTAATCCGTATTTGAG (site GCTCGTCCTCT)	0.0111
GCTCGTTCATGGACCGGTTTTCCCGGTAATCCGTATTTGAT (site GCTCGTTCTAT)	1.25
GCTCTGTCATGGACCGGTTTTCCCGGTAATCCGTATTTGTT (site GCTCTGTCTAA)	1.59
GCTGAATCATGGACCGGTTTTCCCGGTAATCCGTATTTGCA (site GCTGAATCTTG)	1.83
GCTGACGCATGGACCGGTTTTCCCGGTAATCCGTATTTGAT (site GCTGACGCTAT)	1.53
GCTGCCTCATGGACCGGTTTTCCCGGTAATCCGTATTTGGT (site GCTGCCTCTAC)	0.342
GCTGGTTCATGGACCGGTTTTCCCGGTAATCCGTATTTGTC (site GCTGGTTCTGA)	0.00915
